Results taken from patent US6737383B1, “Herbicidal oxadiazolidines” (priority 1999, dated 2004).

How the values were obtained:
maize hybrid P33G26 = experiment: Test G maize injury with safener-treated seed; conditions: absence of any safener; rates ranging from 140 to 1120 g/ha
Procedure: In soil-containing pots were planted seeds of maize hybrid P33G26 that was previously treated with dichlomid, fenchlorazole-ethyl, and naphthalic anhydride (or no safener). The soil surface was then treated with several rates of Compound 131 or Compound 146 dissolved in a non-phytotoxic solvent using a flat-fan sprayer calibrated to deliver 310 L/ha. Treatmemtes were replicated 4 or 5 times. The treated and untreated plants were allowed to grow in a greenhouse using supplementary artificial lighting with a day-length of 14 hours, with the temperature maintained at about 27° C. during the day and 24° C. during the night. Plants were kept watered with a dilute balanced fertilizer solution.
At 28 days after application, the treated plants were compared with untreated controls and vissually evaluated.

Setaria faberii (SETFA) = experiment: Test F preemergence, alone and in mixture with rimsulfuron, SETFA; assay type: in vivo; conditions: 21 days after treatment, 0-100 scale
Outline: (§1)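 Greenhouse pot plants treated preemergence with compound at 70 and 105 g ai/ha, rimsulfuron at 8.8 and 17.5 g ai/ha, or mixtures; 27° C day/21° C night, 14 hour photoperiod. Injury scored at 21 days after treatment against solvent-sprayed controls; expected additive effect of mixtures calculated by Colby's equation.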

lambsquarters = experiment: Test C postemergence lambsquarters; assay type: in vivo, Chenopodium album; conditions: 0 to 100 scale, 0 no effect, 100 complete control
Procedure: (§2) Compounds evaluated in this test were formulated in a non-phytotoxic solvent mixture which included a surfactant and applied to plants that were grown for various periods of time before treatment (postemergence application). A mixture of sandy loam soil and greenhouse potting mix in a 60:40 ratio was used for the postemergence test.
(§3) Plantings of these crops and weed species were adjusted to produce plants of appropriate size for the postemergence test. All plant species were grown using normal greenhouse practices. Crop and weed species include arrowleaf sida (Sida rhombifolia), barnyardgrass (Echinochloa crus-galli), cocklebur (Xanthium strumarium), common ragweed (Ambrosia elatior), corn (Zea mays), cotton (Gossypium hirsutum), eastern black nightshade (Solanum ptycanthum), fall panicum (Panicum dichotomiflorum), field bindweed (Convolvulus arvensis), giant foxtail (Setaria faberii), hairy beggarticks (Bidens pilosa), ivyleaf morningglory (Ipomoea hederacea), johnsongrass (Sorghum halepense), ladysthumb smartweed (Polygonum persicaria), lambsquarters (Chenopodium album), large crabgrass (Digitaria sanguinalis), purple nutsedge (Cyperus rotundus), redroot pigweed (Amaranthus retroflexus), soybean (Glycine max), surinam grass (Brachiaria decumbens), velvetleaf (Abutilon theophrasti) and wild poinsettia (Euphorbia heterophylla).
(§4) Treated plants and untreated controls were maintained in a greenhouse for approximately 14, to 21 days, after which all treated plants were compared to untreated controls and visually evaluated. Plant response ratings, summarized in Table C, were based upon a 0 to 100 scale where 0 was no effect and 100 was complete control. A dash response (−) means no test result.

cotton = experiment: Test C postemergence cotton; assay type: in vivo, Gossypium hirsutum; conditions: 0 to 100 scale, 0 no effect, 100 complete control
Procedure: as §2, §3, §4

eastern black nightshade = experiment: Test C postemergence eastern black nightshade; assay type: in vivo, Solanum ptycanthum; conditions: 0 to 100 scale, 0 no effect, 100 complete control
Procedure: as §2, §3, §4

ladysthumb smartweed = experiment: Test C postemergence ladysthumb smartweed; assay type: in vivo, Polygonum persicaria; conditions: 0 to 100 scale, 0 no effect, 100 complete control
Procedure: as §2, §3, §4

[1] = test system: Digitaria sanguinalis (DIGSA); experiment: Test F preemergence, alone and in mixture with rimsulfuron, DIGSA; assay type: in vivo; conditions: 21 days after treatment, 0-100 scale
Outline: as §1

surinam grass = experiment: Test C postemergence surinam grass; assay type: in vivo, Brachiaria decumbens; conditions: 0 to 100 scale, 0 no effect, 100 complete control
Outline: (§5)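 Compounds in a non-phytotoxic solvent with surfactant were sprayed postemergence on greenhouse-grown plants in 60:40 sandy loam/potting mix. After about 14 to 21 days, visual ratings against untreated controls on a 0 (no effect) to 100 (complete control) scale.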

large crabgrass = experiment: Test C postemergence large crabgrass; assay type: in vivo, Digitaria sanguinalis; conditions: 0 to 100 scale, 0 no effect, 100 complete control
Outline: as §5

johnsongrass = experiment: Test C postemergence johnsongrass; assay type: in vivo, Sorghum halepense; conditions: 0 to 100 scale, 0 no effect, 100 complete control
Outline: as §5

corn = experiment: Test C postemergence corn; assay type: in vivo, Zea mays; conditions: 0 to 100 scale, 0 no effect, 100 complete control
Outline: as §5

[2] = test system: Panicum dichotomiflorum (PANDI); experiment: Test F preemergence, alone and in mixture with rimsulfuron, PANDI; assay type: in vivo; conditions: 21 days after treatment, 0-100 scale
Procedure: Abutilon theophrasti (ABUTH), Chenopodium album (CHEAL), Amaranthus rudis (AMATA), Setaria faberii (SETFA), Panicum dichotomiflorum (PANDI), and Digitaria sanguinalis (DIGSA) were grown from seed in pots of an artificial potting mixture in a greenhouse. Compounds of the present invention were applied at 70 and 105 g ai/ha preemergence. Rimsulfuron was applied at 8.8 and 17.5 g ai/ha. Mixtures of the compounds of the present invention and rimsulfuron were also applied.
Following application, the plants were maintained by watering as needed. A fertilizer solution of Peter's 20-20-20 (10 pounds/5 gallons of water) plus Sprint 330, a Iron Chelate micronutrient, (113.5 grams/5 gallons of water) was injected into the water with an Anderson fertilizer injection system to provide approximately 219 ppm of nitrogen with each watering. Artificial lighting was used to supplement natural light to produce a 14 hour photoperiod and: an additional one hour light period was used between 1:00 am to 2:00 am for a night interruption. Greenhouse temperatures were targeted for 27° C. in the day and 21° C. at night. At 21 days after treatment, all plants were evaluated for injury as compared to control plants that were sprayed only with non-phytotoxic solvent.
Colby's equation was used to calculate the expected additive herbicidal effect of the mixtures of Compound 21 and the mixture partners listed above. […]

cocklebur = experiment: Test C postemergence cocklebur; assay type: in vivo, Xanthium strumarium; conditions: 0 to 100 scale, 0 no effect, 100 complete control
Outline: as §5

redroot pigweed = experiment: Test C postemergence redroot pigweed; assay type: in vivo, Amaranthus retroflexus; conditions: 0 to 100 scale, 0 no effect, 100 complete control
Procedure: as §2, §3, §4

[3] = Alone: Cmpd. rate 70, Rimsulfuron 0
[4] = Alone: Cmpd. rate 105, Rimsulfuron 0

Structure (SMILES): CC(C)N(C(=O)n1oc(=O)n(-c2ccccc2OC(F)(F)F)c1=O)c1ccc(F)cc1 [Compound 14]
- Injury to maize (maize hybrid P33G26): severely injurious to maize

Structure (SMILES): CC(C)N(C(=O)n1oc(=O)n(C(C)C)c1=O)c1ccccc1 [Compound 113]
- SETFA Observed (Setaria faberii (SETFA); [3]): 60%
- SETFA Observed (Setaria faberii (SETFA); [4]): 65%
- Plant response rating Lambsquarters (lambsquarters; Rate 140 g/ha): 0
- Plant response rating Lambsquarters (lambsquarters; Rate 560 g/ha): 20
- Plant response rating Lambsquarters (lambsquarters; Rate 1120 g/ha): 50
- Plant response rating Cotton (cotton; Rate 140 g/ha): 10
- Plant response rating Cotton (cotton; Rate 280 g/ha): 15
- Plant response rating Cotton (cotton; Rate 560 g/ha): 50
- Plant response rating Cotton (cotton; Rate 1120 g/ha): 80
- Plant response rating E. blacknightsh (eastern black nightshade; Rate 140 g/ha): 50
- Plant response rating E. blacknightsh (eastern black nightshade; Rate 280 g/ha): 50
- Plant response rating E. blacknightsh (eastern black nightshade; Rate 1120 g/ha): 95
- Plant response rating Ladysthumb (ladysthumb smartweed; Rate 140 g/ha): 0
- Plant response rating Ladysthumb (ladysthumb smartweed; Rate 280 g/ha): 0
- Plant response rating Ladysthumb (ladysthumb smartweed; Rate 560 g/ha): 85
- Plant response rating Ladysthumb (ladysthumb smartweed; Rate 1120 g/ha): 85
- DIGSA Observed [1, 3]: 95%
- DIGSA Observed [1, 4]: 70%
- Plant response rating, Surinam grass (surinam grass; Rate 140 g/ha): 0
- Plant response rating, Surinam grass (surinam grass; Rate 280 g/ha): 40
- Plant response rating, Surinam grass (surinam grass; Rate 560 g/ha): 90
- Plant response rating, Surinam grass (surinam grass; Rate 1120 g/ha): 90
- Plant response rating, Large crabgrass (large crabgrass; Rate 140 g/ha): 0
- Plant response rating, Large crabgrass (large crabgrass; Rate 280 g/ha): 85
- Plant response rating, Large crabgrass (large crabgrass; Rate 560 g/ha): 95
- Plant response rating, Large crabgrass (large crabgrass; Rate 1120 g/ha): 95
- Plant response rating, Johnsongrass (johnsongrass; Rate 140 g/ha): 0
- Plant response rating, Johnsongrass (johnsongrass; Rate 280 g/ha): 20
- Plant response rating, Johnsongrass (johnsongrass; Rate 560 g/ha): 60
- Plant response rating, Johnsongrass (johnsongrass; Rate 1120 g/ha): 95
- Plant response rating, Corn (corn; Rate 140 g/ha): 0
- Plant response rating, Corn (corn; Rate 280 g/ha): 40
- Plant response rating, Corn (corn; Rate 560 g/ha): 45
- Plant response rating, Corn (corn; Rate 1120 g/ha): 60
- PANDI Observed [2, 3]: 100%
- PANDI Observed [2, 4]: 95%
- Plant response rating, Cocklebur (cocklebur; Rate 140 g/ha): 5
- Plant response rating, Cocklebur (cocklebur; Rate 280 g/ha): 50
- Plant response rating, Cocklebur (cocklebur; Rate 560 g/ha): 50
- Plant response rating, Cocklebur (cocklebur; Rate 1120 g/ha): 50
- Plant response rating, Redroot pigweed (redroot pigweed; Rate 140 g/ha): 0
- Plant response rating, Redroot pigweed (redroot pigweed; Rate 280 g/ha): 0
- Plant response rating, Redroot pigweed (redroot pigweed; Rate 560 g/ha): 0
- Plant response rating, Redroot pigweed (redroot pigweed; Rate 1120 g/ha): 90
